From patent US7235256B2, “Method of preventing parturient hypocalcemia in animals and compositions used therein” (RJ Innovation, priority 1999, dated 2007)

Tests used:
dairy cows = test: Repeated oral zinc oxide administration, serum calcium response; type: in vivo, cow; settings: lactating cows
Experimental: Six dairy cows were used in this study: Two lactating cows and two dry cows were treated with zinc oxide by mouth at 120 mg/kg body weight, whereas two lactating cows served as untreated controls. Four doses of zinc oxide were given to the treated cows at one-week intervals. Venous blood samples were taken and serum stored at −37° C. for later total calcium determinations. For this purpose blood samples were taken daily from all six cows one hour after morning feeding. Extra samples were taken 5, 11, 23 and 35 hours after zinc oxide administration.

non-lactating (dry) cows = test: EDTA-infusion test for resistance to hypocalcemia; type: in vivo, cow; settings: 8 EDTA-tests at 10 days intervals, normal = ionised blood calcium above 1 mmol/l
Description: To investigate the induction of hypocalcemia by intravenous infusion of EDTA in cows, 6 non-lactating (dry) cows were used in this study. Three of these cows were untreated (cow Nos. 168, 169 and 170) and the other three cows (cow Nos. 172, 175 and 176) had been subjected to a pre-treatment consisting of daily doses of anionic salts (Wang and Beede, 1992). This pre-treatment is known to be effective in preventing milk fever. The latter cows were rumen fistulated to facilitate precise daily dosages of the anionic salts.
All cows were tested for resistance to hypocalcemia by the EDTA-infusion technique. A total of 8 EDTA-tests were performed per cow according to the standardised method of Mellau et al. (1998), at 10 days intervals. With the standardised test, infusion of EDTA was performed until the cow went down involuntarily, due to muscle weakness caused by the induced hypocalcemia. The time taken from this point and until the cow regained normal blood calcium concentration, which is defined as an ionised blood calcium value above 1 mmol/l, was recorded. This time is considered to represent the cows' calcium mobilisation rate and therefore also the cows' ability to resist hypocalcemia. The infusion periods varied between individual cows, but were typically in the range of 2–4 hours. […]

[1] = zinc oxide by mouth 120 mg/kg body weight

Row | SMILES | change of calcium balance response with number of doses (dairy cows; four doses at one-week intervals) | minimum serum calcium concentration (dairy cows; [1]) [mmol/L] | time of minimum serum calcium after administration (dairy cows; [1]) | time to regain normal blood calcium concentration (recovery time) after EDTA infusion (non-lactating (dry) cows)
1 | [O]=[Zn] [zinc oxide] | less and less affected | 1.4 to 1.6 | about 24 hours | 
2 | O=C(O)CN(CCN(CC(=O)O)CC(=O)O)CC(=O)O [EDTA, ethylenediaminetetraacetic acid] |  |  |  | greatly improved
